Data on one compound can be found in patent US20250186461A1, “METHODS AND COMPOSITIONS FOR TREATING AND/OR PREVENTING HERNIAS” (Northwestern University, priority 2023, published 2025).

“Also recorded” adds a separate entry of the source.

For data set [1], the system named is LAM primary fibroblasts from Arom^hum mice. The data set is described as follows: mRNA levels of P4/PGR-responsive and fibrotic genes in LAM primary fibroblasts. It counts as cell-based, mouse.
In data set [2] the test system is LAM fibroblasts from Arom^hum mice. The data set can be described thus: Click-iT EdU proliferation assay. It counts as cell-based, mouse. The settings on record: 1 μM antagonist; E2 (10 nM)+R5020 (100 nM).
The target of data set [3] is T1, aromatase enzyme (Homo sapiens, UniProt P11511).
T1 sequence (P11511 1-503): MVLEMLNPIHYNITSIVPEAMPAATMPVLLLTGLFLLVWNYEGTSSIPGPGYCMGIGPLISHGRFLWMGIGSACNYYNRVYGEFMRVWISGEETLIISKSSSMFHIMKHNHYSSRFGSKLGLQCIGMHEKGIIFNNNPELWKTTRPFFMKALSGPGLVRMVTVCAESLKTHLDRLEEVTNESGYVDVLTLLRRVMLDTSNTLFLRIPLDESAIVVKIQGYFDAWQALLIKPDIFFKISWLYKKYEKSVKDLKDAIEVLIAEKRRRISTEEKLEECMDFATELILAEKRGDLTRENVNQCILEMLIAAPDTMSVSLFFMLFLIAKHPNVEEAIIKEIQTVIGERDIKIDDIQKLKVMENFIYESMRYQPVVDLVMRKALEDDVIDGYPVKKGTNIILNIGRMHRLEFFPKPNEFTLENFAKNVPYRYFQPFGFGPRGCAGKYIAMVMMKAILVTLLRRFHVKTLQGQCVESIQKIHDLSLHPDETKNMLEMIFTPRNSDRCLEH
The settings on record: cited from earlier work.

Data set [4] addresses T2, PGR (Homo sapiens, UniProt P06401).
T2 sequence (P06401 1-933): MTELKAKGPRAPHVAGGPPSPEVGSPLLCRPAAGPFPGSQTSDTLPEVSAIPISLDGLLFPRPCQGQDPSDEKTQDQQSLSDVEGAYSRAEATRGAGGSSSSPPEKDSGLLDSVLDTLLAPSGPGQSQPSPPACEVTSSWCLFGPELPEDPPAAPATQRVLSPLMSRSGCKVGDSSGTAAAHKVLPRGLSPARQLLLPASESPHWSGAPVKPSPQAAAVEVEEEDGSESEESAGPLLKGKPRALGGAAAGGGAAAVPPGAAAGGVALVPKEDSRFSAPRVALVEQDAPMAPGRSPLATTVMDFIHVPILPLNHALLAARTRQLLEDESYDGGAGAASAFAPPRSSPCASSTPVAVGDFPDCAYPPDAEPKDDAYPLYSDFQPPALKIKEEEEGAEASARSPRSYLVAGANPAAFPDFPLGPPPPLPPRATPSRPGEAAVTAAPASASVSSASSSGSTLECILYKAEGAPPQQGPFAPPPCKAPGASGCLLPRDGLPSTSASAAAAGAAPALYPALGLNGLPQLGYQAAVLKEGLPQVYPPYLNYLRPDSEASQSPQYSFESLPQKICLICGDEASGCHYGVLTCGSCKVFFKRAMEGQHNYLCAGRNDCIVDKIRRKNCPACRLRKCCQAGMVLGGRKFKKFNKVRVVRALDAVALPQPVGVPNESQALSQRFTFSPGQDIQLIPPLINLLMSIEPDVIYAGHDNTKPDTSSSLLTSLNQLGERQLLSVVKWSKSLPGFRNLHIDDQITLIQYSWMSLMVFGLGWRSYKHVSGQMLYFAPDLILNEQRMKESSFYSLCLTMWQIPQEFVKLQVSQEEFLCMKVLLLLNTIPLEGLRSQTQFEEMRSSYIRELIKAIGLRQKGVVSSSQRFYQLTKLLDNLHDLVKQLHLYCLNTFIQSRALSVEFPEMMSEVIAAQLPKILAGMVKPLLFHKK
The conditions noted are these: cited from earlier work.

The conditions of data set [5]: long-term use; cited from earlier work.
The target of data set [6] is T3, glucocorticoid receptor (GR) (Homo sapiens, UniProt P04150).
T3 sequence (P04150 1-777): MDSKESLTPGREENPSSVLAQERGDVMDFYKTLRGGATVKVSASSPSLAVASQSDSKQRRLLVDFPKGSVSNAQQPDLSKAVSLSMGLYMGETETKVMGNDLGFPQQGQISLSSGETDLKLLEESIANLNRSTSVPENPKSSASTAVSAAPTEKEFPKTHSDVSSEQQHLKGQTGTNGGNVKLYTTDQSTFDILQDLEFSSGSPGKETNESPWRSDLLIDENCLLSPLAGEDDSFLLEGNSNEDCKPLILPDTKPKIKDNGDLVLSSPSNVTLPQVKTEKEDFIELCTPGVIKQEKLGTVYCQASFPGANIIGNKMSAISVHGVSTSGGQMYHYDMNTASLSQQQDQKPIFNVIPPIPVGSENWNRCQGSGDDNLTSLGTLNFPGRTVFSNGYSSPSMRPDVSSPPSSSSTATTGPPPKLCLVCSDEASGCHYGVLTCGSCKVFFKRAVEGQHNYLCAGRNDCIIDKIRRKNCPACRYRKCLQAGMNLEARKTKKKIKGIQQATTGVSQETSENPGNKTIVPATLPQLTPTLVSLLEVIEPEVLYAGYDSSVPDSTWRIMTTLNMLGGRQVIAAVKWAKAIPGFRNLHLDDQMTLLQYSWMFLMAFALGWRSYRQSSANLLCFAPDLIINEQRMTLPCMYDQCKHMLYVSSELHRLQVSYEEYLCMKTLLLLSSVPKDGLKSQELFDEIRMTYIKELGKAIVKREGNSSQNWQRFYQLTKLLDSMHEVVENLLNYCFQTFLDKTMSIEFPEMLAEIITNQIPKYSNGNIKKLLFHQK
The conditions noted are these: cited from earlier work.

Turning to `CN(C)c1ccc([C@H]2C[C@]3(C)[C@@H](CC[C@]3(O)CCCO)[C@@H]3CCC4=CC(=O)CCC4=C32)cc1` [ZK299, Onapristone], in data set [1] (1 μM antagonist, pretreated 2 h before E2 (10 nM)+R5020 (100 nM)), the “E2+R5020-induced expression of P4/PGR-responsive (Greb1, Cyp7b1) and fibrotic genes (Adamtsl1, Col1a1, Col14a1)” value is “significantly decreased; also recorded: strongest inhibition”. In addition, the “E2+R5020-stimulated expression of Col1a1 and Col12a1, blockade” value in data set [1] (pretreatment with 1 μM antagonist) was “blocked”. In addition, in data set [2], the “inhibition of E2+R5020-stimulated LAM fibroblast proliferation” value was “inhibited; also recorded: blocked”. Besides, the “inhibition of aromatase enzyme activity” value in data set [3] is recorded as “weak aromatase inhibitor”. The “P4/PGR antagonism and PGR selectivity” value in data set [4] is “highly PGR-selective pure P4 antagonist”. The liver toxicity result in data set [5] is on record as “significant liver toxicity”. For the same compound, the anti-glucocorticoid activity entry in data set [6] was “minimal or no antiglucocorticoid properties”.
